Experiments:
[1] = system: NQO1 activity in Hepa1c1c7 cells; test: NAD(P)H: quinone oxidoreductase-1 (NQO1) enzyme induction assay (in vitro); format: cell-based, mouse; conditions: Mus musculus, Hepa-1c1c7, NQO1 activity upon addition of 400 nM of test compound, about 48 hr, ratio from the base without the compound
How it was run: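 Mouse Hepa1c1c7 hepatoma cells were treated with 400 nM compound for about 48 h, then lysed with digitonin/EDTA. NQO1 activity was measured as menadione-mediated MTT reduction with a G6P/G6PDH NADPH-regenerating system, stopped with dicoumarol, and read at A610. Values are the activity ratio versus untreated base wells.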

[2] = target: GST-fused human Keap1 (amino acid residues: 325-642) protein (Homo sapiens (Human), UniProt Q14145); test: FP assay (in vitro): inhibition of binding between Nrf2 and Keap1 by fluorescence polarization; conditions: 20 nM GST-fused human Keap1, 10 nM FITC-labeled Nrf2 peptide, 2 hr at room temperature
Sequence of GST-fused human Keap1 (amino acid residues: 325-642) protein (Q14145 325-624 limits assumed): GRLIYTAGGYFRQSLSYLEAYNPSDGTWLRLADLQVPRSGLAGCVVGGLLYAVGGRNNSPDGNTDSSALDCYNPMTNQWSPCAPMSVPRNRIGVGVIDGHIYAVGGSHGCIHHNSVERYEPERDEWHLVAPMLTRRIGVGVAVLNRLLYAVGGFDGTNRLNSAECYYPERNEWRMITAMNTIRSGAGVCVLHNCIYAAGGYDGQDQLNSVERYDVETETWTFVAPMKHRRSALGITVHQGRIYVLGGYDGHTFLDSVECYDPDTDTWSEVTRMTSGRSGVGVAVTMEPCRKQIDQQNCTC

| SMILES | IC50 [2] | fold induction at 0.4 µM [1] |
| --- | --- | --- |
| CC[C@@H]1CN(Cc2cc([C@@H](CC(=O)O)c3cc(OC(F)(F)F)c4c(nnn4C)c3C)cc3ccsc23)Cc2nc(O)ccc2O1 [Example 41, (3R)-3-[1,4-Dimethyl-7-(trifluoromethoxy)-1H-benzotriazol-5-yl]-3-(7-{[(2R)-2-ethyl-7-hydroxy-2,3-dihydropyrido[2,3-f][1,4]oxazepin-4(5H)-yl]methyl}-1-benzothiophen-5-yl)propanoic acid] | ≤ 10 nM | > 5 |
| CC[C@@H]1CN(Cc2cc([C@@H](c3cnc4c(nnn4C)c3C)C(C)(C)C(=O)O)cc3ccsc23)Cc2nc(O)ccc2O1 [Example 48, (3S)-3-(3,7-Dimethyl-3H-[1,2,3]triazolo[4,5-b]pyridin-6-yl)-3-(7-{[(2R)-2-ethyl-7-hydroxy-2,3-dihydropyrido[2,3-f][1,4]oxazepin-4(5H)-yl]methyl}-1-benzothiophen-5-yl)-2,2-dimethylpropanoic acid] | 10 to 30 nM | > 5 |
| CC[C@@H]1CN(Cc2cc([C@H](CC(=O)O)c3cc(OC(F)F)c4c(nnn4C)c3C)cc3ccsc23)Cc2nc(O)ccc2O1 [Example 44, (3S)-3-[7-(Difluoromethoxy)-1,4-dimethyl-1H-benzotriazol-5-yl]-3-(7-{[(2R)-2-ethyl-7-hydroxy-2,3-dihydropyrido[2,3-f][1,4]oxazepin-4(5H)-yl]methyl}-1-benzothiophen-5-yl)propanoic acid] | ≤ 10 nM | > 5 |
| CC[C@@H]1CN(Cc2cc([C@@H](CC(=O)O)c3cc(OC)c4c(nnn4C)c3C)cc3ccsc23)Cc2nc(O)ccc2O1 [Example 21, (3R)-3-(7-{[(2R)-2-Ethyl-7-hydroxy-2,3-dihydropyrido[2,3-f][1,4]oxazepin-4(5H)-yl]methyl}-1-benzothiophen-5-yl)-3-(7-methoxy-1,4-dimethyl-1H-benzotriazol-5-yl)propanoic acid] | 10 to 30 nM | > 5 |
| CC[C@H]1Cc2cccnc2CN(Cc2cc([C@@H](CC(=O)O)c3ccc4c(nnn4C)c3C)cc3ccsc23)C1 [Example 69, (3R)-3-(1,4-Dimethyl-1H-benzotriazol-5-yl)-3-(7-{[(6S)-6-ethyl-5,6,7,9-tetrahydro-8H-pyrido[2,3-c]azepin-8-yl]methyl}-1-benzothiophen-5-yl)propanoic acid] | 10 to 30 nM | > 5 |
| Cc1c([C@H](CC(=O)O)c2cc(CN3Cc4nc(O)ccc4OC4(CC4)C3)c3sccc3c2)ccc2c1nnn2C [Example 4, (3R)-3-(1,4-Dimethyl-1H-benzotriazol-5-yl)-3-{7-[(7′-hydroxy-3′H-spiro[cyclopropane-1,2′-pyrido[2,3-f][1,4]oxazepin]-4′ (5′H)-yl)methyl]-1-benzothiophen-5-yl}propanoic acid] | 10 to 30 nM | > 5 |
| Cc1c([C@@H](CC(=O)O)c2cc(CN3Cc4nc(O)ccc4OC4(CC4)C3)c3sccc3c2)ccc2c1nnn2C [Example 3, (3S)-3-(1,4-Dimethyl-1H-benzotriazol-5-yl)-3-{7-[(7′-hydroxy-3′H-spiro[cyclopropane-1,2′-pyrido[2,3-f][1,4]oxazepin]-4′(5′H)-yl)methyl]-1-benzothiophen-5-yl}propanoic acid] | 10 to 30 nM | > 5 |
| CC[C@H]1Cc2ccc(O)nc2CN(Cc2cc([C@H](CC(=O)O)c3cc(C)c4c(nnn4C)c3C)cc3ccsc23)C1 [Example 86, (3S)-3-(7-{[(6S)-6-Ethyl-2-hydroxy-5,6,7,9-tetrahydro-8H-pyrido[2,3-c]azepin-8-yl]methyl}-1-benzothiophen-5-yl)-3-(1,4,7-trimethyl-1H-benzotriazol-5-yl)propanoic acid] | ≤ 10 nM | > 5 |
| CC[C@@H]1CN(Cc2cc([C@@H](CC(=O)O)c3cc(C#N)c4c(nnn4C)c3C)cc3ccsc23)Cc2nc(O)ccc2O1 [Example 33, (3R)-3-(7-Cyano-1,4-dimethyl-1H-benzotriazol-5-yl)-3-(7-{[(2R)-2-ethyl-7-hydroxy-2,3-dihydropyrido[2,3-f][1,4]oxazepin-4(5H)-yl]methyl}-1-benzothiophen-5-yl)propanoic acid] | 10 to 30 nM | > 5 |
| Cc1c([C@@H](CC(=O)O)c2cc(CN3Cc4nc(O)ccc4O[C@H](C(F)(F)F)C3)c3sccc3c2)ccc2c1nnn2C [Example 38, (3S)-3-(1,4-Dimethyl-1H-benzotriazol-5-yl)-3-(7-{[(2S)-7-hydroxy-2-(trifluoromethyl)-2,3-dihydropyrido[2,3-f][1,4]oxazepin-4(5H)-yl]methyl}-1-benzothiophen-5-yl)propanoic acid] | ≤ 10 nM | > 5 |
| Cc1c([C@H](CC(=O)O)c2cc(CN3Cc4nc(O)ccc4O[C@H](C4CC4)C3)c3sccc3c2)cnc2c1nnn2C [Example 10, (3R)-3-(7-{[(2R)-2-Cyclopropyl-7-hydroxy-2,3-dihydropyrido[2,3-f][1,4]oxazepin-4(5H)-yl]methyl}-1-benzothiophen-5-yl)-3-(3,7-dimethyl-3H-[1,2,3]triazolo[4,5-b]pyridin-6-yl)propanoic acid] | 10 to 30 nM | > 5 |
| Cc1c(C(CC(=O)O)c2cc(CN3Cc4nc(N)ccc4OC4(CC4)C3)c3sccc3c2)cnc2c1nnn2C (stereo not drawn) [Example 71, 3-{7-[(7′-Amino-3′H-spiro[cyclopropane-1,2′-pyrido[2,3-f][1,4]oxazepin]-4′ (5′H)-yl)methyl]-1-benzothiophen-5-yl}-3-(3,7-dimethyl-3H-[1,2,3]triazolo[4,5-b]pyridin-6-yl)propanoic acid] | 10 to 30 nM | > 5 |
| CC[C@H]1Cc2ccc(O)nc2CN(Cc2cc([C@H](CC(=O)O)c3cc(Cl)c4c(nnn4C)c3C)cc3ccsc23)C1 [Example 85, (3S)-3-(7-Chloro-1,4-dimethyl-1H-benzotriazol-5-yl)-3-(7-{[(6S)-6-ethyl-2-hydroxy-5,6,7,9-tetrahydro-8H-pyrido[2,3-c]azepin-8-yl]methyl}-1-benzothiophen-5-yl)propanoic acid] | ≤ 10 nM | > 5 |

Now from value to compound, other results behind:

| IC50 [2] | SMILES | fold induction at 0.4 µM [1] |
| --- | --- | --- |
| 10 to 30 nM | CC[C@@H]1CN(Cc2cc([C@@H](CC(=O)O)c3ccc4c(nnn4CCN(C)C)c3C)cc3ccsc23)Cc2nc(O)ccc2O1 [Example 25, (3R)-3-{1-[2-(Dimethylamino)ethyl]-4-methyl-1H-benzotriazol-5-yl}-3-(7-{[(2R)-2-ethyl-7-hydroxy-2,3-dihydropyrido[2,3-f][1,4]oxazepin-4(5H)-yl]methyl}-1-benzothiophen-5-yl)propanoic acid] | > 5 |
| 30 to 300 nM | CC[C@@H]1CN(Cc2cc(C(CC(=O)O)c3ccc4c(nnn4CC)c3C)cc3ccsc23)Cc2nc(C)ccc2O1 (stereo partly drawn) [Example 92, 3-(1-Ethyl-4-methyl-1H-benzotriazol-5-yl)-3-(7-{[(2R)-2-ethyl-7-methyl-2,3-dihydropyrido[2,3-f][1,4]oxazepin-4(5H)-yl]methyl}-1-benzothiophen-5-yl)propanoic acid] | > 5 |
| 30 to 300 nM | Cc1c([C@H](CC(=O)O)c2cc(CN3Cc4nc(O)ccc4O[C@H](C)C3)c3sccc3c2)ccc2c1nnn2C [Example 16, (3R)-3-(1,4-Dimethyl-1H-benzotriazol-5-yl)-3-(7-{[(2R)-7-hydroxy-2-methyl-2,3-dihydropyrido[2,3-f][1,4]oxazepin-4(5H)-yl]methyl}-1-benzothiophen-5-yl)propanoic acid] | > 5 |
| 10 to 30 nM | CC[C@@H]1CN(Cc2cc([C@H](CC(=O)O)c3ccc4c(nnn4CCN(C)C)c3C)cc3ccsc23)Cc2nc(O)ccc2O1 [Example 26, (3S)-3-{1-[2-(Dimethylamino)ethyl]-4-methyl-1H-benzotriazol-5-yl}-3-(7-{[(2R)-2-ethyl-7-hydroxy-2,3-dihydropyrido[2,3-f][1,4]oxazepin-4(5H)-yl]methyl}-1-benzothiophen-5-yl)propanoic acid] | 3 to 5 |
| 10 to 30 nM | Cc1c([C@H](CC(=O)O)c2cc(CN3Cc4nc(O)ccc4O[C@H](C(C)(F)F)C3)c3sccc3c2)ccc2c1nnn2C [Example 45, (3R)-3-(7-{[(2S)-2-(1,1-Difluoroethyl)-7-hydroxy-2,3-dihydropyrido[2,3-f][1,4]oxazepin-4(5H)-yl]methyl}-1-benzothiophen-5-yl)-3-(1,4-dimethyl-1H-benzotriazol-5-yl)propanoic acid] | > 5 |
| ≤ 10 nM | CC[C@@H]1CN(Cc2cc(C(CC(=O)O)c3ccc4c(nnn4C)c3C)cc3ccsc23)Cc2nc(C(F)(F)F)ccc2O1 (stereo partly drawn) [Example 93, 3-(1,4-Dimethyl-1H-benzotriazol-5-yl)-3-(7-{[(2R)-2-ethyl-7-(trifluoromethyl)-2,3-dihydropyrido[2,3-f][1,4]oxazepin-4(5H)-yl]methyl}-1-benzothiophen-5-yl)propanoic acid] | > 5 |
| ≤ 10 nM | CC[C@@H]1CN(Cc2cc([C@@H](CC(=O)O)c3ccc4c(nnn4C)c3C)cc3ccsc23)Cc2nc(N)ccc2O1 [Example 55, (3R)-3-(7-{[(2R)-7-Amino-2-ethyl-2,3-dihydropyrido[2,3-f][1,4]oxazepin-4(5H)-yl]methyl}-1-benzothiophen-5-yl)-3-(1,4-dimethyl-1H-benzotriazol-5-yl)propanoic acid] | > 5 |
| 10 to 30 nM | CC[C@@H]1CN(Cc2cc(C(CC(=O)O)c3ccc4c(nnn4CCCS(C)(=O)=O)c3C)cc3ccsc23)Cc2nc(O)ccc2O1 (stereo partly drawn) [Example 62, 3-(7-{[(2R)-2-Ethyl-7-hydroxy-2,3-dihydropyrido[2,3-f][1,4]oxazepin-4(5H)-yl]methyl}-1-benzothiophen-5-yl)-3-{4-methyl-1-[3-(methylsulfonyl)propyl]-1H-benzotriazol-5-yl}propanoic acid] | > 5 |

Reference: patent publication US20250296939A1, “BENZOTHIOPHENE COMPOUND” (Kyoto Pharmaceutical Industries, Ltd., priority 2022, published 2025)
